Laboratory results reported in US9815836B2, “Macrocyclic compounds as IRAK1/4 inhibitors and uses thereof” (Merck Patent GmbH, priority 2015, dated 2017).
Where two headings read alike, the source gives them in different places.

Legend:
IRAK4 = IRAK4 (Homo sapiens (Human), UniProt Q9NWZ3); assay: IRAK4 enzymatic assay (ADP-Glo luminescence); assay type: biochemical; conditions: human purified recombinant His-TEV-IRAK4 (1-460), ATP 2 μM, STK1-biotin peptide 300 nM
Procedure: IRAK4 is a human purified recombinant enzyme (His-TEV-IRAK4 (1-460)).
In this assay, IRAK4 hydrolyses ATP, autophosphorylates and phosphorylates a Serine/Threonine generic peptidic substrate (STK: 61ST1BLC from CisBio International). Measurement of IRAK-4 inhibition is performed in 384-well format based on a luminescence assay (ADP-Glo™ Kinase Assay from Promega). Purified human recombinant IRAK4 (0.3 μg/ml) and serial diluted compounds in DMSO (range of concentration from 10 μM to 0.5 nM) or controls (1% DMSO) are incubated for 15 minutes at RT in assay buffer containing 50 mM Hepes pH 7.0, Fatty acid-free BSA 0.1%, Dithiothreitol (DTT) 2 mM, MgCl2 10 mM, EGTA 0.5 mM, Triton X-100 0.01%, MnCl2 5 mM. The kinase reaction is then initiated by the addition of ATP (2 μM) and the peptidic substrate STK1-biotin peptide (300 nM). After 2 hours of incubation at RT, the reaction is stopped and the unconsumed ATP depleted by the addition of ADP-Glo™ Reagent according to supplier instructions. After 40 minutes of incubation at RT, the Kinase Detection Reagent is then added to the assay plate according to supplier instructions. After 20 minutes of incubation at RT, the luminescence signal is measured with a plate-reading luminometer (PerkinElmer Envision or equivalent reader).

IRAK1 = IRAK1 (Homo sapiens (Human), UniProt P51617); assay: IRAK1 enzymatic assay (ADP-Glo luminescence); assay type: biochemical
Procedure: In this assay, IRAK1 hydrolyses ATP and autophosphorylates. Measurement of IRAK-1 inhibition is performed in 384-well format based on luminescence assay (ADP-Glo™ Kinase Assay from Promega). Purified human recombinant IRAK1 ([…]) and serial diluted compounds in DMSO (range of concentration from 10 μM to 0.5 nM) or controls (1% DMSO) are incubated for 15 minutes at RT in assay buffer containing 50 mM Hepes pH 7.0, Fatty acid-free BSA 0.1%, Dithiothreitol (DTT) 2 mM, MgCl2 10 mM, EGTA 0.5 mM, Triton X-100 0.01%. The kinase reaction is then initiated by the addition of ATP at a concentration of 1μM. After 2 hours of incubation at RT, the reaction is stopped and the unconsumed ATP depleted by the addition of ADP-Glo™ Reagent according to supplier instructions. After 40 minutes of incubation at RT, the Kinase Detection Reagent is then added to the assay plate according to supplier instructions. After 20 minutes of incubation at RT, the luminescence signal is measured with a luminometer (PerkinElmer Envision or equivalent reader).

IRAK4, sequence (Q9NWZ3 whole entry): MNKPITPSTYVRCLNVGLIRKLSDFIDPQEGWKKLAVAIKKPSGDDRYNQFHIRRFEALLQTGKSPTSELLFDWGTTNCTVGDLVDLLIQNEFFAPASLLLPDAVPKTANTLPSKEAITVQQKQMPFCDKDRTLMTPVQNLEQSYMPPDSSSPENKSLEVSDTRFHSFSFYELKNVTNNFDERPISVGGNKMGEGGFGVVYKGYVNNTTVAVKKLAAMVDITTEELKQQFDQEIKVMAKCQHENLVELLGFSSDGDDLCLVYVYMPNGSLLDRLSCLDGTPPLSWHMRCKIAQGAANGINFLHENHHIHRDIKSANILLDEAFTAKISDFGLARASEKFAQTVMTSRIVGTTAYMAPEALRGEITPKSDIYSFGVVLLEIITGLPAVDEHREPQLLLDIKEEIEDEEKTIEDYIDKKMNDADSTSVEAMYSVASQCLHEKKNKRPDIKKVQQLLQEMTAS
IRAK1, sequence (P51617 194-712): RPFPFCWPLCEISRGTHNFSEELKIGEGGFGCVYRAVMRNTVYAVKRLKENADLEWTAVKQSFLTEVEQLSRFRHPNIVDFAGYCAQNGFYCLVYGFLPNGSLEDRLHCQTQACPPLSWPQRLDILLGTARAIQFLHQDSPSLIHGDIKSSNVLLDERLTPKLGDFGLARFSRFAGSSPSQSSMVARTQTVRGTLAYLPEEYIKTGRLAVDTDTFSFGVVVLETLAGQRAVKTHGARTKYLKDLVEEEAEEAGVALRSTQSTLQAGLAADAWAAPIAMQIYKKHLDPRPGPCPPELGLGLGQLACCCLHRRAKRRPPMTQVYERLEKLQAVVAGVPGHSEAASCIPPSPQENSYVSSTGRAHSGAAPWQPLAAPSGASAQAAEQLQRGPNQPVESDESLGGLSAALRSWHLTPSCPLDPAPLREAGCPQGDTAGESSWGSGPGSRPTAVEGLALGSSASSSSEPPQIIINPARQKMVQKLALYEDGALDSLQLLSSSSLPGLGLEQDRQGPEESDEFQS

SMILES | IC50 (IRAK4) [µM] | IC50 (IRAK1) [µM] | IC50 (IRAK1; human purified recombinant His-TEV-IRAK1 (194-712), ATP 1 μM, read-out: IRAK1 IC50) [µM]
O=C1Nc2cn(C3CCN(CCO)CC3)nc2C(=O)NCCCCCCn2cc(cn2)-c2cccc1n2 [Compound 22, 16-[1-(2-hydroxyethyl)piperidin-4-yl]-4,5,12,15,16,19,25-heptaazatetracyclo[19.3.1.1^2,^5.0^1^4,^1^8]hexacosa-1 (24),2(26),3,14,17,21(25),22-heptaene-13,20-dione] | < 0.1 | 0.1 to 1 | –
CN(C)CCN1CCC(n2cc3c(n2)C(=O)NCCCCCCn2cc(cn2)-c2cccc(n2)C(=O)N3)CC1 [Compound 23, 6-{1-[2-(dimethylamino)ethyl]piperidin-4-yl}-4,5,12,15,16,19,25-heptaazatetracyclo[19.3.1.1^2,^5.0^1^4,^1^8]hexacosa-1(24),2(26),3,14,17,21(25),22-heptaene-13,20-dione] | < 0.1 | 0.1 to 1 | –
O=C1Nc2cn(C3CCOCC3)nc2C(=O)NCCCCCCn2cc(cn2)-c2cccc1c2 [Compound 24, 16-(oxan-4-yl)-4,5,12,15,16,19-hexaazatetracyclo[19.3.1.1^2,^5.0^1^4,^1^8]hexacosa-1(24),2(26),3,14,17,21 (25),22-heptaene-13,20-dione] | < 0.1 | 0.1 to 1 | –
Cn1cc2c(n1)C(=O)NCCC/C=C/Cn1cc(cn1)-c1cccc(n1)C(=O)N2 [Compound 25, (7E)-16-methyl-4,5,12,15,16,19,25-heptaazatetracyclo[19.3.1.1^2,^5.0^1^4,^1^8]hexacosa-1(24),2(26),3,7,14,17,21(25),22-octaene-13,20-dione] | < 0.1 | – | < 0.1
Cn1cc2c(n1)C(=O)NCC/C=C\CCn1cc(cn1)-c1cccc(n1)C(=O)N2 [Compound 27, (8Z)-16-methyl-4,5,12,15,16,19,25-heptaazatetracyclo[19.3.1.1^2,^5.0^1^4,^1^8]hexacosa-1(24),2(26),3,8,14,17,21(25),22-octaene-13,20-dione] | < 0.1 | 0.1 to 1 | –
Cn1cc2c(n1)C(=O)NCC/C=C/CCn1cc(cn1)-c1cccc(n1)C(=O)N2 [Compound 28, (8E)-16-methyl-4,5,12,15,16,19,25-heptaazatetracyclo[19.3.1.1^2,^5.0^1^4,^1^8]hexacosa-1(24),2(26),3,8,14,17,21(25),22-octaene-13,20-dione] | < 0.1 | 0.1 to 1 | –
Cn1cc2c(n1)C(=O)NC/C=C/CCCn1cc(cn1)-c1cccc(n1)C(=O)N2 [Compound 29, (9E)-16-methyl-4,5,12,15,16,19,25-heptaazatetracyclo[19.3.1.1^2,^5.0^1^4,^1^8]hexacosa-1(24),2(26),3,9,14,17,21(25),22-octaene-13,20-dione] | < 0.1 | 0.1 to 1 | –
Cn1cc2c(n1)C(=O)NC/C=C\CCCn1cc(cn1)-c1cccc(n1)C(=O)N2 [Compound 30, (9Z)-16-methyl-4,5,12,15,16,19,25-heptaazatetracyclo[19.3.1.1^2,^5.0^1^4,^1^8]hexacosa-1(24),2(26),3,9,14,17,21(25),22-octaene-13,20-dione] | < 0.1 | 0.1 to 1 | –
Cn1cc2c(n1)C(=O)NCC(O)C(O)CCCn1cc(cn1)-c1cccc(n1)C(=O)N2 (stereo not shown) [Compound 31, 9,10-dihydroxy-16-methyl-4,5,12,15,16,19,25-heptaazatetracyclo[19.3.1.1^2,^5.0^1^4,^1^8]hexacosa-1(24),2(26),3,14,17,21(25),22-heptaene-13,20-dione] | < 0.1 | 0.1 to 1 | –
Cn1cc2c(n1)C(=O)NCCCC(O)C(O)Cn1cc(cn1)-c1cccc(n1)C(=O)N2 (stereo not shown) [Compound 32, 7,8-dihydroxy-16-methyl-4,5,12,15,16,19,25-heptaazatetracyclo[19.3.1.1^2,^5.0^1^4,^1^8]hexacosa-1(24),2(26),3,14,17,21(25),22-heptaene-13,20-dione] | < 0.1 | 0.1 to 1 | –
Cn1cc2c(n1)C(=O)NCCC(O)C(O)CCn1cc(cn1)-c1cccc(n1)C(=O)N2 (stereo not shown) [Compound 33, 8,9-dihydroxy-16-methyl-4,5,12,15,16,19,25-heptaazatetracyclo[19.3.1.1^2,^5.0^1^4,^1^8]hexacosa-1(24),2(26),3,14,17,21(25),22-heptaene-13,20-dione] | < 0.1 | 0.1 to 1 | –
